{"source": "ChEMBL document CHEMBL1128255", "about": "“Synthesis of 11 beta-[18F]fluoro-5 alpha-dihydrotestosterone and 11 beta-[18F]fluoro-19-nor-5 alpha-dihydrotestosterone: preparation via halofluorination-reduction, receptor binding, and tissue distribution” (J Med Chem, 1995)", "key": {"[1]": {"experiment": "%ID/g is percent injected dose per gram of tissue and in vivo distribution of compound obtained after 1 hour in prostate (v)/blood", "type": "ADME, organism-based"}, "[2]": {"experiment": "%ID/g is percent injected dose per gram of tissue and in vivo distribution of compound obtained after 2 hour in prostate (d)", "type": "ADME, organism-based, Prostate gland"}, "[3]": {"experiment": "%ID/g is percent injected dose per gram of tissue and in vivo distribution of compound obtained after 2 hr in kidney", "type": "ADME, organism-based"}, "[4]": {"experiment": "%ID/g is percent injected dose per gram of tissue and in vivo distribution of compound obtained after 4 hour in kidney", "type": "ADME, organism-based"}, "[5]": {"experiment": "%ID/g is percent injected dose per gram of tissue and in vivo distribution of compound obtained after 4 hour in liver", "type": "ADME, organism-based"}, "[6]": {"experiment": "%ID/g is percent injected dose per gram of tissue and in vivo distribution of compound obtained after 4 hour in lung", "type": "ADME, organism-based"}, "[7]": {"experiment": "%ID/g is percent injected dose per gram of tissue and in vivo distribution of compound obtained after 4 hour in prostate (v)/blood", "type": "ADME, organism-based", "settings": "other tissue"}, "[8]": {"experiment": "%ID/g is percent injected dose per gram of tissue and in vivo distribution of compound obtained after 1 hour in kidney", "type": "ADME, organism-based"}, "[9]": {"experiment": "%ID/g is percent injected dose per gram of tissue and in vivo distribution of compound obtained after 2 hour (low) in liver", "type": "ADME, organism-based"}, "[10]": {"experiment": "%ID/g is percent injected dose per gram of tissue and in vivo distribution of compound obtained after 2 hour (low) in muscle", "type": "ADME, organism-based"}, "[11]": {"experiment": "%ID/g is percent injected dose per gram of tissue and in vivo distribution of compound obtained after 2 hour (low) in prostate (d)/biood", "type": "ADME, organism-based, Prostate gland"}, "[12]": {"experiment": "%ID/g is percent injected dose per gram of tissue and in vivo distribution of compound obtained after 2 hour (low) in prostate (d)/muscle", "type": "ADME, organism-based"}, "[13]": {"experiment": "%ID/g is percent injected dose per gram of tissue and in vivo distribution of compound obtained after 2 hour (low) in prostate (v)/blood", "type": "ADME, organism-based"}, "[14]": {"experiment": "%ID/g is percent injected dose per gram of tissue and in vivo distribution of compound obtained after 2 hour in blood", "type": "ADME, organism-based"}, "[15]": {"experiment": "%ID/g is percent injected dose per gram of tissue and in vivo distribution of compound obtained after 2 hour (blocked) in liver", "type": "ADME, organism-based"}, "[16]": {"experiment": "%ID/g is percent injected dose per gram of tissue and in vivo distribution of compound obtained after 2 hour (blocked) in muscle", "type": "ADME, organism-based"}, "[17]": {"experiment": "%ID/g is percent injected dose per gram of tissue and in vivo distribution of compound obtained after 2 hour (blocked) in prostate (v)", "type": "ADME, organism-based, Prostate gland"}, "[18]": {"experiment": "%ID/g is percent injected dose per gram of tissue and in vivo distribution of compound obtained after 2 hour (blocked) in prostate (v)/blood", "type": "ADME, organism-based", "settings": "other tissue"}, "[19]": {"experiment": "%ID/g is percent injected dose per gram of tissue and in vivo distribution of compound obtained after 2 hour (blocked) in prostate (v)/muscle", "type": "ADME, organism-based"}, "[20]": {"experiment": "%ID/g is percent injected dose per gram of tissue and in vivo distribution of compound obtained after 2 hour (blocked)i n prostate (d)/biood", "type": "ADME, organism-based, Prostate gland"}, "[21]": {"experiment": "%ID/g is percent injected dose per gram of tissue and in vivo distribution of compound obtained after 2 hour (low) in bladder", "type": "ADME, organism-based, Urinary bladder"}, "[22]": {"experiment": "%ID/g is percent injected dose per gram of tissue and in vivo distribution of compound obtained after 2 hour (low) in blood", "type": "ADME, organism-based"}, "[23]": {"experiment": "%ID/g is percent injected dose per gram of tissue and in vivo distribution of compound obtained after 2 hour (low) in fat", "type": "ADME, organism-based, Adipose tissue"}, "[24]": {"experiment": "%ID/g is percent injected dose per gram of tissue and in vivo distribution of compound obtained after 1 hour in prostate (v)/muscle", "type": "ADME, organism-based"}, "[25]": {"experiment": "%ID/g is percent injected dose per gram of tissue and in vivo distribution of compound obtained after 2 hour (blocked) in bone", "type": "ADME, organism-based, Bone element"}, "[26]": {"molecular_target": "T1, Androgen receptor (Rattus norvegicus) (UniProt P15207)", "T1 sequence (whole entry)": "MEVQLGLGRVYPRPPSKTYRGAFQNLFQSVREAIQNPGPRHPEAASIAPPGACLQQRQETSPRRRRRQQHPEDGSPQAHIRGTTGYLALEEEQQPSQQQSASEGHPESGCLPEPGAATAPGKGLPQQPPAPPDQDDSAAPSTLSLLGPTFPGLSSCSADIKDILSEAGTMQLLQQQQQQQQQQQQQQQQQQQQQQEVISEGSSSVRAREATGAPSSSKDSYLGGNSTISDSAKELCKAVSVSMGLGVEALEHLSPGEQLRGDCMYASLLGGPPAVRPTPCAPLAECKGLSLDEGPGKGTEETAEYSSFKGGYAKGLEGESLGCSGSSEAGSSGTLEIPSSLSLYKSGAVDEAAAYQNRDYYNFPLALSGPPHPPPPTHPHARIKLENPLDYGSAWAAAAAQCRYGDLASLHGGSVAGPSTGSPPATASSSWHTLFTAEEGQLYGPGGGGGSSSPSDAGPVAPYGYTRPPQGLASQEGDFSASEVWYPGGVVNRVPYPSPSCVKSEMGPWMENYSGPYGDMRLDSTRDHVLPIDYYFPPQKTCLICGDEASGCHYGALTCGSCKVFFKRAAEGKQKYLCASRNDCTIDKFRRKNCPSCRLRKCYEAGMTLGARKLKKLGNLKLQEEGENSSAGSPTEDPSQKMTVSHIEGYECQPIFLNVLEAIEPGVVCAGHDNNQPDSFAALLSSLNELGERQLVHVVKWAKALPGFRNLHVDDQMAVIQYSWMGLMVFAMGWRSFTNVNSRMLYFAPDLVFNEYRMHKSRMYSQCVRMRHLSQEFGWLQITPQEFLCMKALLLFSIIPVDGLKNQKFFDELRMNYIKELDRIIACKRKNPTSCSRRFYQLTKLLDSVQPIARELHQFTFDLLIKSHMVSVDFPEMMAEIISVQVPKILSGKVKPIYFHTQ", "description": "Binding selectivity index (BSI) as ratio of RBA for androgen receptor to non-specific binding of R1881"}, "[27]": {"experiment": "physchem", "settings": "octanol/water", "description": "Partition coefficient (logP)"}}, "data": [{"smiles": "C[C@]12C[C@H](F)[C@H]3[C@@H](CC[C@H]4CC(=O)CC[C@@H]43)[C@@H]1CC[C@@H]2O", "values": [{"measurement": "ID/g", "setting": "[1]", "result": 3.054, "unit": "%"}, {"measurement": "ID/g", "setting": "[2]", "result": 0.132, "unit": "%"}, {"measurement": "ID/g", "setting": "[3]", "result": 0.276, "unit": "%"}, {"measurement": "ID/g", "setting": "[4]", "result": 0.201, "unit": "%"}, {"measurement": "ID/g", "setting": "[5]", "result": 0.863, "unit": "%"}, {"measurement": "ID/g", "setting": "[6]", "result": 0.046, "unit": "%"}, {"measurement": "ID/g", "setting": "[7]", "result": 2.036, "unit": "%"}, {"measurement": "ID/g", "setting": "[8]", "result": 0.458, "unit": "%"}, {"measurement": "ID/g", "setting": "[9]", "result": 1.045, "unit": "%"}, {"measurement": "ID/g", "setting": "[10]", "result": 0.037, "unit": "%"}, {"measurement": "ID/g", "setting": "[11]", "result": 3.126, "unit": "%"}, {"measurement": "ID/g", "setting": "[12]", "result": 3.83, "unit": "%"}, {"measurement": "ID/g", "setting": "[13]", "result": 2.427, "unit": "%"}, {"measurement": "ID/g", "setting": "[14]", "result": 0.046, "unit": "%"}, {"measurement": "ID/g", "setting": "[15]", "result": 1.189, "unit": "%"}, {"measurement": "ID/g", "setting": "[16]", "result": 0.03, "unit": "%"}, {"measurement": "ID/g", "setting": "[17]", "result": 0.054, "unit": "%"}, {"measurement": "ID/g", "setting": "[18]", "result": 0.88, "unit": "%"}, {"measurement": "ID/g", "setting": "[19]", "result": 1.763, "unit": "%"}, {"measurement": "ID/g", "setting": "[20]", "result": 0.815, "unit": "%"}, {"measurement": "ID/g", "setting": "[21]", "result": 0.686, "unit": "%"}, {"measurement": "ID/g", "setting": "[22]", "result": 0.047, "unit": "%"}, {"measurement": "ID/g", "setting": "[23]", "result": 0.041, "unit": "%"}, {"measurement": "ID/g", "setting": "[24]", "result": 4.4, "unit": "%"}, {"measurement": "ID/g", "setting": "[25]", "result": 0.065, "unit": "%"}, {"measurement": "BSI", "setting": "[26]", "result": 91.8}, {"measurement": "logP", "setting": "[27]", "result": 3.1}]}, {"smiles": "C[C@]12CCC(=O)C[C@@H]1CC[C@@H]1[C@@H]2[C@@H](F)C[C@]2(C)[C@@H](O)CC[C@@H]12", "values": [{"measurement": "ID/g", "setting": "[1]", "result": 5.41, "unit": "%"}, {"measurement": "ID/g", "setting": "[2]", "result": 0.352, "unit": "%"}, {"measurement": "ID/g", "setting": "[3]", "result": 0.229, "unit": "%"}, {"measurement": "ID/g", "setting": "[4]", "result": 0.155, "unit": "%"}, {"measurement": "ID/g", "setting": "[5]", "result": 0.415, "unit": "%"}, {"measurement": "ID/g", "setting": "[6]", "result": 0.035, "unit": "%"}, {"measurement": "ID/g", "setting": "[7]", "result": 12.249, "unit": "%"}, {"measurement": "ID/g", "setting": "[8]", "result": 0.417, "unit": "%"}, {"measurement": "ID/g", "setting": "[9]", "result": 0.228, "unit": "%"}, {"measurement": "ID/g", "setting": "[10]", "result": 0.026, "unit": "%"}, {"measurement": "ID/g", "setting": "[11]", "result": 11.358, "unit": "%"}, {"measurement": "ID/g", "setting": "[12]", "result": 9.78, "unit": "%"}, {"measurement": "ID/g", "setting": "[13]", "result": 10.43, "unit": "%"}, {"measurement": "ID/g", "setting": "[14]", "result": 0.038, "unit": "%"}, {"measurement": "ID/g", "setting": "[15]", "result": 0.468, "unit": "%"}, {"measurement": "ID/g", "setting": "[16]", "result": 0.023, "unit": "%"}, {"measurement": "ID/g", "setting": "[17]", "result": 0.069, "unit": "%"}, {"measurement": "ID/g", "setting": "[18]", "result": 1.357, "unit": "%"}, {"measurement": "ID/g", "setting": "[19]", "result": 2.895, "unit": "%"}, {"measurement": "ID/g", "setting": "[20]", "result": 1.465, "unit": "%"}, {"measurement": "ID/g", "setting": "[21]", "result": 0.263, "unit": "%"}, {"measurement": "ID/g", "setting": "[22]", "result": 0.022, "unit": "%"}, {"measurement": "ID/g", "setting": "[23]", "result": 0.02, "unit": "%"}, {"measurement": "ID/g", "setting": "[24]", "result": 8.208, "unit": "%"}, {"measurement": "ID/g", "setting": "[25]", "result": 0.061, "unit": "%"}, {"measurement": "BSI", "setting": "[26]", "result": 42.8}, {"measurement": "logP", "setting": "[27]", "result": 3.5}]}]}
